Consider one molecule from paper PMC3174152, “Pseudomonas aeruginosa 4-Amino-4-Deoxychorismate Lyase: Spatial Conservation of an Active Site Tyrosine and Classification of Two Types of Enzyme” (PLoS ONE, 2011).

For this assay, the target named is T1, PaPabC (Pseudomonas aeruginosa, UniProt Q9HZN6).
T1 construct: gene pabC; full length (271 residues), N-terminal His6 tag with TEV site kept (not cleaved), modified pET15b, E. coli BL21(DE3) Gold; homodimer, about 50 kDa
T1 sequence (Q9HZN6 1-271): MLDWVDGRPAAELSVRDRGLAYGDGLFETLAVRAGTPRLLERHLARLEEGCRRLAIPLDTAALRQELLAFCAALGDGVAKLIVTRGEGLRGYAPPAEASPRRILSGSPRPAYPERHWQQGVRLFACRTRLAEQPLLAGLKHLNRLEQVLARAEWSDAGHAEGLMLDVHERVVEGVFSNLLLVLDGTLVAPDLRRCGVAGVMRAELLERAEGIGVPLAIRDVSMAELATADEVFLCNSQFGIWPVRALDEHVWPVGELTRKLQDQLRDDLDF
Briefly: X-ray crystal structure ([…] Å), omit map. It is filed as binding. As to conditions: covalent, Schiff base with Lys140; Tyr92 of partner subunit contacts PLP O3; crystallised with 0.1 mM PLP and 10 mM PABA, pH 6.5.

Regarding `Cc1ncc(COP(=O)(O)O)c(C=O)c1O` [PLP], the “X-ray crystal structure (1.75 Å), omit map” value is given as “The presence of the PLP cofactor covalently bound to Lys140 was confirmed”.
